Results: US20240058375A1, “CO-FORMULATION OF POLYMYXINS FOR INHALATION” (priority 2021, published 2024)

Columns and labels:
A549 cells [1] = assay: Cell viability of A549 cells, polymyxin B with or without polyglutamic acid, propidium iodide imaging; type: cell-based, Human; conditions: 1.0 mM polymyxin B alone, 24 h
Experimental: (§1) Human lung epithelial cells (A549 cells) were obtained from the American Type Culture Collection (ATCC® CCL-185™, Manassas, VA, USA), grown and sub-cultured in Dulbecco's modified Eagle's medium (DMEM) supplemented with 10% fetal bovine serum (FBS). A549 cells (1×10^5 cells/mL, 12-well plate) were seeded in supplemented DMEM at 37° C. in a humidified atmosphere containing 5% CO2 until 70% confluency. All experiments were conducted in three replicates. Cells were treated with 1.0 mM polymyxin B in the presence and absence of polyaspartic acid (0.25, 1.0 and 5.0 mM); and cell viability were examined at 24 h with flow cytometry after staining with propidium iodide. The drug concentrations for different formulations were selected based on our previous results on polymyxin toxicity in human lung epithelial cells. ^18 To assess the protective effect of polyglutamic acid, A549 cells (0.5×10^5 cells/mL, 200 μL/well) were seeded on 96-well plates (#353072, Corning, USA) for overnight at 37° C. Cells were treated with 1.0 mM polymyxin B in the presence and absence of polyglutamic acid (2.5, 5.0 and 10.0 μM). Cell viability was determined at 24 h using propidium iodide staining using EVOS® FL Auto Imaging System (Invitrogen; Approximate fluorescence excitation/emission maxima: 535/617 nm). […] Three random fields containing at least 50 cells per treatment condition were analyzed.

A549 cells [2] = assay: Mitochondrial membrane potential (TMRE) in A549 cells; type: cell-based, Human; conditions: 1.0 mM polymyxin B alone; untreated control 100%
Experimental: (§2) The attenuation of mitochondrial superoxide formation and loss of mitochondrial membrane potential caused by polymyxin B were determined. ^18 A549 cells (0.5×10^5 cells/mL) were grown on 8-well chamber slides ([…] polymer coverslip, ibidi, Germany) for overnight at 37° C. Cells were treated with 1.0 mM polymyxin B in the presence and absence of polyaspartic acid (0.25, 1.0 and 5.0 mM). To assess the formation of mitochondrial superoxide and loss of mitochondrial membrane potential MitoSOX Red dye (Invitrogen; excitation and emission wavelengths of 514 and 531 to 622 nm, respectively) and TMRE (Invitrogen; excitation and emission wavelengths of 561 and 568 to 690 nm, respectively) were employed, respectively. Nuclei were stained with Hoechst 33342 (Invitrogen; excitation and emission wavelengths of 405 and 410 to 551 nm, respectively) to allow cell counting. Fluorescence intensity was quantified by confocal laser scanning microscopy (Leica SP8 inverted microscope equipped with a 63× oil immersion objective). The average fluorescence intensity per cell for each treatment was calculated using ImageJ (45, 46). Three random fields containing at least 50 cells per treatment condition were analyzed and the TMRE fluorescence in untreated control cells was set as 100%.

A549 cells [3] = assay: Cell viability of A549 cells, polymyxin B with or without polyaspartic acid, propidium iodide flow cytometry; type: cell-based, Human; conditions: 1.0 mM polymyxin B alone, 24 h
Experimental: as §1

Swiss Albino mice = assay: In vivo pulmonary toxicity, lung histopathology with semiquantitative scoring (SQS)
Experimental: The animal study was approved by the Monash Animal Ethics Committee, Monash University (Victoria, Australia). All experiments were conducted in accordance with the Australian Code of Practice for the Care and Use of Animals for Scientific Purposes. Swiss Albino mice (female; age, 6 weeks; body weight, 20 to 25 g) were obtained from the Monash Animal Research Platform (Clayton, Victoria, Australia). […] Animals were housed individually in metabolic cages and had free access to food and water. Mice were intratracheally administered 10 mg/kg of polymyxin B, 120 mg/kg of polyaspartic acid and the combinations of polyaspartic acid with polymyxin B three times a day.
Histopathological examinations of lungs were performed to assess the pulmonary toxicity by polymyxin B. At 24 h following pulmonary administration, mice were humanely killed and lungs were harvested and fixed in formalin immediately. To avoid any potential artificial damage to the lung epithelium, bronchoalveolar lavage and cardiac puncture were not performed. A semiquantitative scoring (SQS) system was employed to quantify the extent of lung damages. ^20 Briefly, we used the following grades for the severity and nature of the histopathological changes in the lungs: grade 0, no changes or mild changes considered insignificant; grade 1, minimal lesions affecting 1 to 25% of the area; grade 2, multifocal lesions affecting 25 to 50% of the area; and grade 3, severe tissue changes affecting >50% of the area. The grades were given the following scores: grade 0, 0.1; grade 1, 1; grade 2, 4; and grade 3, 10. Percentages of damage across different levels of the lungs were given the following scores: <1%, 0; from 1 to <5%, 1; from 5 to <10%, 2; from 10 to <20%, 3; from 20 to <30%, 4; from 30 to <40%, 5; >40%, 6. The overall lung histology score was determined as the product of the grade and percent damage score. An SQS was assigned the following scores: SQS 0, no significant change; SQS+1, mild damage; SQS+2, mild to moderate damage; SQS+3, moderate damage; SQS+4, moderate to severe damage; and SQS+5, severe damage.

A549 cells [4] = assay: Mitochondrial superoxide formation (MitoSOX Red) in A549 cells; type: cell-based, Human; conditions: 1.0 mM polymyxin B alone, 24 h
Experimental: as §2

[5] = intratracheal three times a day, 10 mg/kg polymyxin B and/or 120 mg/kg polyaspartic acid, lungs at 24 h

polymyxin B sulfate was tested, and the Cell viability (A549 cells [1]) was 51.7±5.2%, the “Mitochondrial membrane potential compared to the control” value (A549 cells [2]) was 49.5±7.2% and the Cell viability (A549 cells [3]) was 36.7±5.1%. For the same substance, the “Histological finding in lung” value (Swiss Albino mice; [5]) was “no macroscopic lesion but severe tissue injury”, the “SQS of lung damage (grade)” value (Swiss Albino mice; [5]) was “+2 to +5” and the “Lung area affected by tissue injury” value (Swiss Albino mice; intratracheal three times a day, 10 mg/kg polymyxin B or 120 mg/kg polyaspartic acid, lungs at 24 h) was 25-50%. For the same substance, the “Overall semi-quantitative score (SQS) of lung damage” value (Swiss Albino mice; mean±SD, 10 mg/kg polymyxin B alone or co-administered with 120 mg/kg polyaspartic acid) was 3.0±1.4 and the “MitoSOX fluorescence intensity, higher compared to the control” value (A549 cells [4]) was greater than 200 fold.
